# In EP0183174A2, “Substituted phenoxy urea, processes for its preparation and herbicide containing it as active ingredient” (KUMIAI CHEMICAL INDUSTRY CO., LTD., priority 1984, dated 1986):
# Columns and labels:
# redroot pigweed [1] = assay: Test Example 4: herbicidal test by upland foliage treatment; type: in vivo, Amaranthus retroflexus L.
# Experimental: (§1) Into each plastic pot of 120 cm^2, upland soil was filled, then seeds of barnyardgrass, crabgrass, redroot pigweed and rice flatsedge were sown, and they were grown in a greenhouse until barnyardgrass. reached 3-leaf stage. Each wettable powder prepared from the test compound in accordance with Formulation Example 3 was diluted with water to give the amount of the active ingredient corresponding to 4 kg/hectare, and the diluted solution was uniformly sprayed at an application rate of 1000 liter/hectare from the top of plants by means of a small size spray, when barnyardgrass was in the 3-leaf stage. They were grown in a greenhouse, and twenty days after the application, the herbicidal effects were evaluated in accordance with the standards as identified in Table 5.
# Japanese bulrush = assay: Test Example 1: herbicidal test by water treatment in a paddy field; type: in vivo, Scir^pus juncoides Roxb.; set-up: key: 5: Withered; 4.5: Herbicidal effect (or phytotoxicity) in a range of 90 to 99%; 4: Herbicidal effect (or phytotoxicity) in a range of 80 to 89%; 3.5: Herbicidal effect (or phytotoxicity) in a range of 70 to 79%; 3: Herbicidal effect (or phytotoxicity) in a range of 60 to 69%; 2.5: Herbicidal effect (or phytotoxicity) in a range of 50 to 59%; 2: Herbicidal effect (or phytotoxicity) in a range of 40 to 49%; 1.5: Herbicidal effect (or phytotoxicity) in a range of 30 to 39%; 1: Herbicidal effect (or phytotoxicity) in a range of 20 to 29%; 0.5: Herbicidal effect (or phytotoxicity) in a range of 1 to 19%; 0: No herbicidal effect (or no phytotoxicity); settings: evaluated thirty days after application
# Experimental: (§2) Into each porcelain pot having a diameter of 10 cm, paddy soil was filled and puddled, and seeds of barnyardgrass (Echinochloa crus-galli L.), smallflower flatsedge, monochoria and Japanese bulrush were sown, and water was filled in a-depth of 3 cm. One day later, a predetermined amount of the wettable powder prepared in Formulation Example 3 and diluted with water was dropwise applied to the surface of the water (dose of the active ingredient: 4 kg/hectare). Thereafter, they were grown in a green house. Thirty days after the application, the herbicidal effects were evaluated in accordance with the standards as identified in Table 5.
# rice flatsedge [2] = assay: Test Example 4: herbicidal test by upland foliage treatment; type: in vivo, Cy^perus iria L.; set-up: key: 5: Withered; 4.5: Herbicidal effect (or phytotoxicity) in a range of 90 to 99%; 4: Herbicidal effect (or phytotoxicity) in a range of 80 to 89%; 3.5: Herbicidal effect (or phytotoxicity) in a range of 70 to 79%; 3: Herbicidal effect (or phytotoxicity) in a range of 60 to 69%; 2.5: Herbicidal effect (or phytotoxicity) in a range of 50 to 59%; 2: Herbicidal effect (or phytotoxicity) in a range of 40 to 49%; 1.5: Herbicidal effect (or phytotoxicity) in a range of 30 to 39%; 1: Herbicidal effect (or phytotoxicity) in a range of 20 to 29%; 0.5: Herbicidal effect (or phytotoxicity) in a range of 1 to 19%; 0: No herbicidal effect (or no phytotoxicity)
# Experimental: as §1
# redroot pigweed [3] = assay: Test Example 3: herbicidal test by upland soil treatment; type: in vivo, Amaranthus retroflexus L.; set-up: key: 5: Withered; 4.5: Herbicidal effect (or phytotoxicity) in a range of 90 to 99%; 4: Herbicidal effect (or phytotoxicity) in a range of 80 to 89%; 3.5: Herbicidal effect (or phytotoxicity) in a range of 70 to 79%; 3: Herbicidal effect (or phytotoxicity) in a range of 60 to 69%; 2.5: Herbicidal effect (or phytotoxicity) in a range of 50 to 59%; 2: Herbicidal effect (or phytotoxicity) in a range of 40 to 49%; 1.5: Herbicidal effect (or phytotoxicity) in a range of 30 to 39%; 1: Herbicidal effect (or phytotoxicity) in a range of 20 to 29%; 0.5: Herbicidal effect (or phytotoxicity) in a range of 1 to 19%; 0: No herbicidal effect (or no phytotoxicity); settings: evaluated twenty days after application
# From the text: (§3) Into each plastic pot of 600 cm^2, upland soil was filled, then seeds of barnyardgrass, crabgrass, green foxtail, redroot pigweed, rice flatsedge, rice, wheat, maize, soybean, cotton and sugar beet were sown, and they were covered with soil. A predetermined amount of the wettable powder prepared from the test compound in accordance with Formulation Example 3 and diluted with water, was uniformly applied to the surface of the soil at an application rate of 1000 liter/hectare by means of a small size spray. They were grown in a greenhouse, and twenty days after the application, the herbicidal effects and phytotoxicity were evaluated in accordance with the standards as identified in Table 5.
# rice flatsedge [4] = assay: as above; type: in vivo, Cy^perus iria L.; set-up: key: 5: Withered; 4.5: Herbicidal effect (or phytotoxicity) in a range of 90 to 99%; 4: Herbicidal effect (or phytotoxicity) in a range of 80 to 89%; 3.5: Herbicidal effect (or phytotoxicity) in a range of 70 to 79%; 3: Herbicidal effect (or phytotoxicity) in a range of 60 to 69%; 2.5: Herbicidal effect (or phytotoxicity) in a range of 50 to 59%; 2: Herbicidal effect (or phytotoxicity) in a range of 40 to 49%; 1.5: Herbicidal effect (or phytotoxicity) in a range of 30 to 39%; 1: Herbicidal effect (or phytotoxicity) in a range of 20 to 29%; 0.5: Herbicidal effect (or phytotoxicity) in a range of 1 to 19%; 0: No herbicidal effect (or no phytotoxicity); settings: evaluated twenty days after application
# From the text: as §3
# [5] = tested on: barnyardgrass (Echinochloa crus-galli L.); assay: Test Example 1: herbicidal test by water treatment in a paddy field; type: in vivo; set-up: key: 5: Withered; 4.5: Herbicidal effect (or phytotoxicity) in a range of 90 to 99%; 4: Herbicidal effect (or phytotoxicity) in a range of 80 to 89%; 3.5: Herbicidal effect (or phytotoxicity) in a range of 70 to 79%; 3: Herbicidal effect (or phytotoxicity) in a range of 60 to 69%; 2.5: Herbicidal effect (or phytotoxicity) in a range of 50 to 59%; 2: Herbicidal effect (or phytotoxicity) in a range of 40 to 49%; 1.5: Herbicidal effect (or phytotoxicity) in a range of 30 to 39%; 1: Herbicidal effect (or phytotoxicity) in a range of 20 to 29%; 0.5: Herbicidal effect (or phytotoxicity) in a range of 1 to 19%; 0: No herbicidal effect (or no phytotoxicity); settings: evaluated thirty days after application
# Experimental: as §2
# [6] = upland foliage treatment, 4 kg/hectare active ingredient, sprayed at 1000 liter/hectare at barnyardgrass 3-leaf stage, evaluated twenty days after application
# [7] = water treatment in paddy field pot, dose of active ingredient 4 kg/hectare
# [8] = active ingredient 4 kg/hectare, foliage spray 1000 liter/hectare at 3-leaf stage of barnyardgrass, twenty days after application
# [9] = dose of the active ingredient 4 kg/hectare, wettable powder applied to water surface one day after sowing
SMILES,Herbicidal effects Redroot pigweed (redroot pigweed [1]; [6]),Herbicidal effects Japanese bulrush (Japanese bulrush; [7]),Herbicidal effects Rice flatsedge (rice flatsedge [2]; [6]),Herbicidal effects Redroot pigweed (redroot pigweed [3]; Dose 1 kg/HA),Herbicidal effects Redroot pigweed (redroot pigweed [3]; Dose 4 kg/HA),Herbicidal effects Rice flatsedge (rice flatsedge [4]; Dose 1 kg/HA),Herbicidal effects Rice flatsedge (rice flatsedge [4]; Dose 4 kg/HA),"Herbicidal effects Barnyard grass [5, 7]",Herbicidal effects Redroot pigweed (redroot pigweed [1]; [8]),Herbicidal effects Japanese bulrush (Japanese bulrush; [9]),Herbicidal effects Rice flatsedge (rice flatsedge [2]; [8]),"Herbicidal effects Barnyard grass [5, 9]"
COCCNC(=O)NOc1cc(Cl)ccc1Cl [Compound No. 243],4 (Herbicidal effect (or phytotoxicity) in a range of 80 to 89%),5,5,5,5,5,5,5,,,,
"CN(C)C(=O)NOc1cc(Cl)ccc1Cl [Compound No. 1, 3-(2,5-Dichlorophenoxy)-1,1-dimethyl urea]",,,,5,5,5,5,,4 (Herbicidal effect (or phytotoxicity) in a range of 80 to 89%),5,5,5
"CC(C)N(C)C(=O)NOc1cc(Cl)cc(Cl)c1 [Compound No. 186, 3-(3,5-Dichlorophenoxy)-1-isopropyl-1-methyl urea trichloroacetate]",,5,,5,5,5,5,5,2 (Herbicidal effect (or phytotoxicity) in a range of 40 to 49%),,4 (Herbicidal effect (or phytotoxicity) in a range of 80 to 89%),
"CON(C)C(=O)NOc1cc(Cl)ccc1Cl [Compound No. 242, 3-(2,5-Dichlorophenoxy)-1-methoxy-1-methyl urea]",3 (Herbicidal effect (or phytotoxicity) in a range of 60 to 69%),5,5,5,5,5,5,5,,,,
